Source: patent publication US5021562A, “Method for azide displacement of α-triflates of 1,5-lactones” (Monsanto Company, priority 1990, dated 1991)

Tests used:
Format in all cases: biochemical
[1] = system: human α-mannosidases; test: Inhibition of human α-mannosidases (overall statement, glycosidase panel)
From the text: (§1) The relative potencies of these compounds as fucosidase inhibitors may be understood by considering them as analogues of α-L-fucose; all three compounds have the correct chirality of the secondary hydroxyl groups - the minimum requirement for inhibition of α-fucosidase. […] All the compounds are weaker inhibitors of α-fucosidase than is deoxyfuconojirimycin, since they all lack a lipophilic methyl substituent with correct configuration.

[2] = target: T1, human liver α-fucosidase (Homo sapiens, UniProt P04066); test: Inhibition of human liver α-fucosidase
T1 construct: from tissue; host or cells: human liver
T1 sequence (P04066 32-466): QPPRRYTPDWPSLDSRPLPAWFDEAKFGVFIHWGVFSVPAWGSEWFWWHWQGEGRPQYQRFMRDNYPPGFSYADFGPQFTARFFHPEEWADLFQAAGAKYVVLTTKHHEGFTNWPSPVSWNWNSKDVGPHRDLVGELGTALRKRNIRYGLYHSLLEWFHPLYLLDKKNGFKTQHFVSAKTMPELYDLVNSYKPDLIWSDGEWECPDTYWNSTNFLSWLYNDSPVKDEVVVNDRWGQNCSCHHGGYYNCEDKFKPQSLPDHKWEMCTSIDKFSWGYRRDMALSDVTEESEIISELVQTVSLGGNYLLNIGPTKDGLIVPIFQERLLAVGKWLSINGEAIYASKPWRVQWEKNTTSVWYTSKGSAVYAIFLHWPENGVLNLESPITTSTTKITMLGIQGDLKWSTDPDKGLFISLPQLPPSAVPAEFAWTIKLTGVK
Description: % Inhibition of human liver α-fucosidase and α-mannosidase
catalysed hydrolysis of 4-umbelliferyl pyrranosides at
1 mM concentration of inhibitor

[3] = system: β-mannosidase; test: Inhibition of human liver β-mannosidase (glycosidase panel)
From the text: as §1

OC[C@@H]1N[C@H](CO)[C@@H](O)[C@@H](O)[C@@H]1O [6-epi-HMJ, 2,6-dideoxy-2,6-imino-L-glycero-D-talo-heptitol]
inhibition of α-mannosidases (in words) [1]: did not inhibit any α-mannosidase
inhibition of α-fucosidase (in words) [2]: powerful inhibitors of α-fucosidase

OC[C@H]1NC[C@@H](O)[C@@H](O)[C@@H]1O [DMJ, reference compound]
inhibition of α-mannosidases (in words) [1]: very similar
inhibition of β-mannosidase (in words) [3]: Neither compound inhibited β-mannosidase
inhibition of α-fucosidase (in words) [2]: powerful inhibitors of α-fucosidase

OC[C@H]1N[C@H](CO)[C@@H](O)C(O)[C@@H]1O (stereo partly drawn) [α-HMJ, 2,6-Dideoxy-2,6-imino-D-glycero-D-talo-heptitol]
inhibition of α-mannosidases (in words) [1]: very similar
inhibition of β-mannosidase (in words) [3]: Neither compound inhibited β-mannosidase
inhibition of α-fucosidase (in words) [2]: only a weak inhibitor
